Columns and labels:
Assay type in all cases: in vivo
[1] = system: Beet Armyworm (Spodoptera exigua, LAPHEG); assay: Bioassay on Beet Armyworm (BAW), 128-well diet tray assay; conditions: Beet Armyworm, 128-well diet tray assay, read-out: BAW rating
Procedure, shortened: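 Diet tray, 8 wells/compound; 50 μg/cm^2 applied to diet surface (90:10 acetone-water), dried. 1–5 L2 larvae/well; 25° C., 14:10 L:D, 5–7 d. Read-out: % mortality, mean of 8 wells.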

[2] = system: Cabbage Looper (Trichoplusia ni, TRIPNI); assay: Bioassay on Cabbage Looper (CL), 128-well diet tray assay; conditions: Trichoplusia ni; Cabbage Looper, 128-well diet tray assay; read-out: CL rating
Procedure, shortened: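 Second-instar larvae, one to five per well, placed on artificial diet treated with 50 μg/cm^2 test molecule in 90:10 acetone-water, dried before infestation. Held 5–7 days at 25° C, 14:10 light-dark; percent mortality averaged over eight wells.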

[3] = system: Yellow Fever Mosquito (Aedes aegypti, AEDSAE); assay: Bioassay on Yellow Fever Mosquito (YFM), 96-well plate larval assay; conditions: Yellow Fever Mosquito, 96-well plate larval assay
Procedure, shortened: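 Each well was scored for mortality after 3 days at room temperature under a non-evaporative lid. Test molecules came from DMSO masters (4000 ppm stock) diluted with water/acetone 90:10 and dispensed into six replicate plates, which were then infested with roughly 1-day-old larvae in liver-powder water.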

Row | SMILES | pest or weed control at 50 µg/cm2 [1] [%] | pest or weed control at 50 µg/cm2 [2] [%] | YFM rating [3]
1 | Nc1cc(NC(=O)c2cc(NC(=O)[C@H]3[C@H](c4ccc(Cl)c(Br)c4)C3(Cl)Cl)ccc2Cl)c(F)cc1F [F580, N-(5-Amino-2,4-difluorophenyl)-5-((1R,3R)-3-(3-bromo-4-chlorophenyl)-2,2-dichlorocyclopropane-1-carboxamido)-2-chlorobenzamide] | 50 to 100 | 50 to 100 | A (80-100)
2 | O=C(Nc1ccc(F)cc1F)c1cc(NC(=O)C2C(c3cc(F)c(F)c(F)c3)C2(Cl)Cl)ccc1Cl (stereo not drawn) [F581, 2-Chloro-5-trans-(2,2-dichloro-3-(3,4,5-trifluorophenyl)cyclopropane-1-carboxamido)-N-(2,4-difluorophenyl)benzamide] | 50 to 100 | 50 to 100 | A (80-100)
3 | O=C(Nc1cc(F)c(F)c(Br)c1)c1cc(NC(=O)[C@H]2[C@H](c3cc(Cl)cc(Cl)c3)C2(Cl)Cl)ccc1Cl [F583, N-(3-Bromo-4,5-difluorophenyl)-2-chloro-5-((1R,3R)-2,2-dichloro-3-(3,5-dichlorophenyl)cyclopropane-1-carboxamido)benzamide] | 50 to 100 | 50 to 100 | A (80-100)
4 | O=C(Nc1ccc(F)cc1F)c1cc(NC(=O)C2C(c3ccc(Cl)c(F)c3)C2(Cl)Cl)ccc1Cl (stereo not drawn) [PF36, 2-Chloro-5-(trans)-2,2-dichloro-3-(4-chloro-3-fluorophenyl)cyclopropane-1-carboxamido)-N-(2,4-difluorophenyl)benzamide] | 50 to 100 | 50 to 100 | A (80-100)
5 | O=C(Nc1ccc(F)cc1)c1cc(NC(=O)C2C(c3cc(Cl)cc(Cl)c3)C2(F)Br)ccc1Cl (stereo not drawn) [PF51, 5-(trans)-2-Bromo-3-(3,5-dichlorophenyl)-2-fluorocyclopropane-1-carboxamido)-2-chloro-N-(4-fluorophenyl)benzamide] | 50 to 100 | 50 to 100 | B (More than 0-Less than 80)
6 | COc1cc(NC(=O)c2cc(NC(=O)C3C(c4cc(Cl)cc(Cl)c4)C3(Cl)Cl)ccc2Cl)ccc1Cl (stereo not drawn) [PF114, 2-Chloro-N-(4-chloro-3-methoxyphenyl)-5-(trans)-2,2-dichloro-3-(3,5-dichlorophenyl)cyclopropane-1-carboxamido)benzamide] | 50 to 100 | 50 to 100 | A (80-100)
7 | O=C(Nc1ccc(Br)c(F)c1)c1cc(NC(=O)C2C(c3cc(Cl)cc(Cl)c3)C2(Cl)Cl)ccc1Cl (stereo not drawn) [PF115, N-(4-Bromo-3-fluorophenyl)-2-chloro-5-(trans)-2,2-dichloro-3-(3,5-dichlorophenyl)cyclopropane-1-carboxamido)benzamide] | 50 to 100 | 50 to 100 | A (80-100)
8 | O=C(Nc1ccc(Cl)cc1F)c1cc(NC(=O)C2C(c3cc(Cl)cc(Cl)c3)C2(Cl)Cl)ccc1Cl (stereo not drawn) [PF116, 2-Chloro-N-(4-chloro-2-fluorophenyl)-5-(trans)-2,2-dichloro-3-(3,5-dichlorophenyl)cyclopropane-1-carboxamido)benzamide] | 50 to 100 | 50 to 100 | B (More than 0-Less than 80)
9 | O=C(Nc1ccc(Cl)c(Cl)c1)c1cc(NC(=O)C2C(c3cc(Cl)cc(Cl)c3)C2(Cl)Cl)ccc1Cl (stereo not drawn) [PF117, 2-Chloro-5-(trans)-2,2-dichloro-3-(3,5-dichlorophenyl)cyclopropane-1-carboxamido)-N-(3,4-dichlorophenyl)benzamide] | 50 to 100 | 50 to 100 | A (80-100)
10 | O=C(Nc1cc(F)ccc1F)c1cc(NC(=O)C2C(c3cc(Cl)cc(Cl)c3)C2(Cl)Cl)ccc1Cl (stereo not drawn) [PF118, 2-Chloro-5-(trans)-2,2-dichloro-3-(3,5-dichlorophenyl)cyclopropane-1-carboxamido)-N-(2,5-difluorophenyl)benzamide] | 50 to 100 | 50 to 100 | B (More than 0-Less than 80)

— US10219516B2, “Molecules having pesticidal utility, and intermediates, compositions, and processes, related thereto” (priority 2015, dated 2019)
